Assay results taken from the NIST ThermoML archive (doi:10.1016/j.jct.2012.09.018).
Numbers after ± are expanded uncertainties.

Test: mn = molality of the nth substance listed, in mol/kg
Details: 101 kPa, Liquid, Pycnometric method

CC(C)[C@H](NC(=O)CN)C(=O)O [glycyl-L-valine] + O
293.15 K
Details | mass density [kg/m3]
m1 = 0.01993 | 999.24 ± 0.9
m1 = 0.04051 | 1000.32 ± 0.9
m1 = 0.06065 | 1001.37 ± 0.91
m1 = 0.08097 | 1002.43 ± 0.91
m1 = 0.1005 | 1003.46 ± 0.91
m1 = 0.1203 | 1004.51 ± 0.91
m1 = 0.1403 | 1005.53 ± 0.91
m1 = 0.1594 | 1006.55 ± 0.91
m1 = 0.1799 | 1007.62 ± 0.91
m1 = 0.1995 | 1008.64 ± 0.91

O=C([O-])C(F)(F)C(F)(F)C(F)(F)C(F)(F)C(F)(F)C(F)(F)C(F)(F)F.[Na+] [sodium perfluorooctanoate] + O
m1 = 0.04
Details | mass density [kg/m3]
293.15 K | 1007.53 ± 0.91
298.15 K | 1006.24 ± 0.38
303.15 K | 1004.73 ± 0.41
308.15 K | 1003.15 ± 0.92

CC(C)C[C@H](NC(=O)CN)C(=O)O [glycyl-L-leucine] + O
293.15 K
Details | mass density [kg/m3]
m1 = 0.01984 | 999.17 ± 0.9
m1 = 0.02628 | 999.49 ± 0.9
m1 = 0.03301 | 999.83 ± 0.9
m1 = 0.03973 | 1000.15 ± 0.9
m1 = 0.04936 | 1000.61 ± 0.9
m1 = 0.05894 | 1001.06 ± 0.9
m1 = 0.06889 | 1001.56 ± 0.91
m1 = 0.07838 | 1002.04 ± 0.91
m1 = 0.08821 | 1002.51 ± 0.91

NCC(=O)NCC(=O)O [glycylglycine] + O
293.15 K
Details | mass density [kg/m3]
m1 = 0.02014 | 999.33 ± 0.9
m1 = 0.04077 | 1000.49 ± 0.9
m1 = 0.06148 | 1001.64 ± 0.91
m1 = 0.09135 | 1003.33 ± 0.91
m1 = 0.1226 | 1005.06 ± 0.91
m1 = 0.1538 | 1006.84 ± 0.91
m1 = 0.1823 | 1008.4 ± 0.91
m1 = 0.2128 | 1010.11 ± 0.91
m1 = 0.2534 | 1012.46 ± 0.92
